Data published in ChEMBL document CHEMBL1201862, “PubChem BioAssay data set” (2004).
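Where inhibition never reached the appropriate level, the endpoint shown equals the highest concentration tested. Otherwise, values were interpolated linearly from a five-concentration, 48-hour dose response in 96-well plates. Abbreviation: GI50, concentration required for 50% inhibition of growth.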 The source made the active and inactive calls. No stated cut-off is given here; in the data, active = GI50 up to about 1.1 µM and inactive = higher.

Experiments:
Experiment in all cases: NCI tumour cell line growth inhibition, 48 h
A549 = tested on: A549
CCRF-CEM = tested on: CCRF-CEM
COLO 205 = tested on: COLO 205
HCC 2998 = tested on: HCC 2998
K562 = tested on: K562
NCI-H460 = tested on: NCI-H460
OVCAR-4 = tested on: OVCAR-4
SK-MEL-5 = tested on: SK-MEL-5
SNB-19 = tested on: SNB-19
SW-620 = tested on: SW-620
TK-10 = tested on: TK-10
U-251 = tested on: U-251
UACC-257 = tested on: UACC-257
HL-60 = tested on: HL-60
SF-268 = tested on: SF-268
CAKI-1 = tested on: CAKI-1

Measured: GI50

COC(=O)CC(=O)OSc1ccccc1
inactive: A549 12.5 µM | CCRF-CEM 3.76 µM | COLO 205 19.5 µM | HCC 2998 28.1 µM | K562 35.2 µM | NCI-H460 38.5 µM | OVCAR-4 28.6 µM | SK-MEL-5 22.3 µM | SNB-19 41.7 µM | SW-620 18.1 µM | TK-10 43 µM | U-251 3.48 µM | UACC-257 25.4 µM

COC(=O)C(C/C=C(\C)c1ccccc1)C(C)=O (stereo not drawn)
inactive: A549 53.1 µM | CCRF-CEM 40.9 µM | COLO 205 > 81.8 µM | HCC 2998 > 100 µM | HL-60 21.4 µM | K562 44.9 µM | NCI-H460 85.3 µM | OVCAR-4 56 µM | SF-268 97.3 µM | SK-MEL-5 59.6 µM | SNB-19 > 100 µM | SW-620 > 100 µM | U-251 57.5 µM | UACC-257 > 48.3 µM

CCOC(=O)/C(=C/c1ccco1)P(=O)(OCC)OCC
inactive: A549 > 100 µM | CAKI-1 > 100 µM | CCRF-CEM > 100 µM | COLO 205 > 100 µM | HCC 2998 > 100 µM | HL-60 > 100 µM | K562 > 100 µM | NCI-H460 > 100 µM | OVCAR-4 > 100 µM | SF-268 > 100 µM | SK-MEL-5 > 100 µM | SW-620 > 100 µM | TK-10 > 100 µM | U-251 > 100 µM | UACC-257 > 100 µM

NS(=O)(=O)c1ccc(NC(=O)C2C(=O)C(=O)N(c3ccc(S(N)(=O)=O)cc3)C2=O)cc1 (stereo not drawn)
inactive: A549 > 100 µM | CAKI-1 > 100 µM | CCRF-CEM > 100 µM | COLO 205 > 100 µM | HCC 2998 > 100 µM | HL-60 > 10 µM | K562 > 100 µM | OVCAR-4 > 100 µM | SF-268 > 100 µM | SK-MEL-5 > 100 µM | SNB-19 > 100 µM | SW-620 > 100 µM | TK-10 > 100 µM | U-251 > 100 µM | UACC-257 > 100 µM

Cc1nc(O)nc2c1C(NCCCN(C)C)c1cc(Cl)ccc1N2 (stereo not drawn)
inactive: A549 13.9 µM | CCRF-CEM 15.1 µM | COLO 205 13.2 µM | HCC 2998 16.3 µM | HL-60 14 µM | K562 8.61 µM | NCI-H460 14.7 µM | SF-268 16.2 µM | SNB-19 16.4 µM | SW-620 15.2 µM | TK-10 16.8 µM | U-251 15.9 µM | UACC-257 13.2 µM

O=C1Sc2ccccc2C(=O)N2CCSC12 (stereo not drawn)
inactive: CCRF-CEM > 100 µM | COLO 205 > 100 µM | HCC 2998 > 100 µM | HL-60 82.6 µM | K562 > 100 µM | NCI-H460 > 100 µM | SK-MEL-5 > 100 µM | SNB-19 > 100 µM | SW-620 > 100 µM | TK-10 > 100 µM | U-251 > 100 µM | UACC-257 > 100 µM

O=C(Nc1cccc(O)c1)C(=O)C1C(=O)NC(=S)NC1=O
inactive: A549 > 100 µM | CAKI-1 > 100 µM | CCRF-CEM > 100 µM | COLO 205 > 100 µM | HCC 2998 > 100 µM | HL-60 > 100 µM | K562 > 100 µM | OVCAR-4 > 100 µM | SF-268 > 100 µM | SK-MEL-5 > 100 µM | SNB-19 > 100 µM | SW-620 > 100 µM | U-251 > 100 µM | UACC-257 > 100 µM

Oc1cc(-c2ccc(Oc3ccccc3)cc2)nc2cc3c(cc12)OCO3
inactive: A549 > 100 µM | CCRF-CEM > 100 µM | COLO 205 > 100 µM | HCC 2998 > 100 µM | HL-60 > 100 µM | K562 > 100 µM | NCI-H460 > 100 µM | OVCAR-4 > 100 µM | SF-268 > 100 µM | SK-MEL-5 > 100 µM | SNB-19 > 100 µM | SW-620 > 100 µM | TK-10 > 100 µM | U-251 > 100 µM | UACC-257 > 100 µM

CCOC(=O)[N-]c1ccc(S(=O)(=O)[O+](C)CCl)cc1.CCOC(=O)[N-]c1ccc(S(=O)(=O)[O+](C)CCl)cc1.NC(=O)N=O.NC(=O)OCCCl
inactive: A549 > 100 µM | CAKI-1 > 100 µM | CCRF-CEM > 100 µM | COLO 205 > 100 µM | HCC 2998 > 100 µM | HL-60 > 100 µM | K562 > 100 µM | NCI-H460 > 100 µM | SF-268 > 100 µM | SNB-19 > 100 µM | SW-620 > 100 µM | TK-10 > 100 µM | U-251 > 100 µM | UACC-257 > 100 µM

O=c1c2cc([N+](=O)[O-])ccc2sc2ccsc12
inactive: A549 > 100 µM | CCRF-CEM > 100 µM | COLO 205 > 100 µM | HCC 2998 > 100 µM | HL-60 > 100 µM | K562 > 100 µM | NCI-H460 > 100 µM | OVCAR-4 > 100 µM | SF-268 > 100 µM | SK-MEL-5 > 100 µM | SNB-19 > 100 µM | SW-620 > 100 µM | U-251 > 100 µM | UACC-257 > 100 µM

Nc1ccc(N)c2c1C(=O)c1ccccc1C2=O
inactive: A549 24.4 µM | CAKI-1 4.57 µM | CCRF-CEM 32.1 µM | COLO 205 17.8 µM | HCC 2998 3.97 µM | K562 27.6 µM | NCI-H460 9.51 µM | OVCAR-4 > 100 µM | SF-268 51.3 µM | SK-MEL-5 15.8 µM | SNB-19 > 100 µM | SW-620 32.7 µM | TK-10 4.08 µM | U-251 17.3 µM | UACC-257 > 100 µM

COC(=O)C(CC(=O)c1cc2c(cc1I)OCO2)Cc1cc(OC)c(OC)c(OC)c1I (stereo not drawn)
inactive: A549 > 100 µM | CAKI-1 25 µM | CCRF-CEM > 100 µM | COLO 205 > 100 µM | HCC 2998 > 100 µM | HL-60 16.7 µM | K562 > 100 µM | NCI-H460 > 100 µM | SF-268 > 100 µM | SK-MEL-5 13.6 µM | SNB-19 > 100 µM | SW-620 > 100 µM | TK-10 > 100 µM | U-251 65.6 µM | UACC-257 16.4 µM

O=C(c1ccccc1O)c1cc(-c2ncc3c(=O)c4ccccc4oc3n2)c(-c2ccccc2O)[nH]c1=O
inactive: A549 25.5 µM | CAKI-1 8.02 µM | CCRF-CEM 26 µM | COLO 205 31.9 µM | HCC 2998 17 µM | HL-60 24.9 µM | K562 19.7 µM | NCI-H460 23.3 µM | OVCAR-4 22.5 µM | SF-268 22.5 µM | SK-MEL-5 12 µM | SNB-19 8.73 µM | SW-620 19.2 µM | UACC-257 18.9 µM

O=C1c2ccccc2C2(O)NC(=S)N(c3ccccc3)C12O (stereo not drawn)
inactive: A549 > 100 µM | CAKI-1 > 100 µM | CCRF-CEM > 100 µM | COLO 205 > 100 µM | HCC 2998 > 100 µM | HL-60 > 100 µM | K562 > 100 µM | NCI-H460 > 100 µM | OVCAR-4 > 100 µM | SF-268 > 100 µM | SNB-19 > 100 µM | SW-620 > 100 µM | TK-10 > 100 µM | U-251 > 100 µM | UACC-257 > 100 µM
